In PMC10610505, “Synthesis and Biological Evaluation of Some New 3-Aryl-2-thioxo-2,3-dihydroquinazolin-4(1H)-ones and 3-Aryl-2-(benzylthio)quinazolin-4(3H)-ones as Antioxidants; COX-2, LDHA, α-Glucosidase and α-Amylase Inhibitors; and Anti-Colon Carcinoma and Apoptosis-Inducing Agents” (Pharmaceuticals, 2023):
Several values for one entry are separate records, joined by “and”; a condition that tells them apart may be missing. Equal values may be shown once.

Legend:
[1] = target: α-glucosidase enzyme from Saccharomyces Cerevisiae (Saccharomyces cerevisiae, UniProt P53341); assay: In vitro α-glucosidase (AG) inhibitory activity; conditions: mean ± SD of three replicates
α-glucosidase enzyme from Saccharomyces Cerevisiae, sequence (P53341 whole entry): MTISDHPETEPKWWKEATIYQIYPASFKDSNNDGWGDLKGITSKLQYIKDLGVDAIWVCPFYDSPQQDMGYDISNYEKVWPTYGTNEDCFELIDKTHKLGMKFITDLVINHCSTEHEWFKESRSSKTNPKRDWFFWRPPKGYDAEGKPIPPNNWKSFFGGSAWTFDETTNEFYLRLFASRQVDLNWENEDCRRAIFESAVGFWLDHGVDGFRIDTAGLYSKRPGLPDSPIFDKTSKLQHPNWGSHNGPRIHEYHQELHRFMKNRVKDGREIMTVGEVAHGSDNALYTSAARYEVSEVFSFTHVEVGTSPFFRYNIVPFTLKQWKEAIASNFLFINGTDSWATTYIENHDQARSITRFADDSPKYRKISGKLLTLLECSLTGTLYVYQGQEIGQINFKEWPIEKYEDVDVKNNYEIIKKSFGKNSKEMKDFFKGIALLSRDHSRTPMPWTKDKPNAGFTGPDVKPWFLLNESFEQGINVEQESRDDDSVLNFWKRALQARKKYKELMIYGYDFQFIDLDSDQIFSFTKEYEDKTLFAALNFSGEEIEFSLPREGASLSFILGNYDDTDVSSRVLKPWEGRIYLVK
Procedure: Then, the reaction was allowed to start by adding 150 µL of the color reagent 4-NPGP and the resulting mixture was incubated for additional 15 min at 37 °C. Collectively, the colorimetric assay medium contained 2U of α-glucosidase, 5 mM of 4-NPGP and 10 mM of the potassium phosphate buffer with a pH of 6.9. […] The inhibitory efficiency of each compound was expressed as IC50 µg/mL (as well as µM), which was calculated from the corresponding calibration curve.

[2] = target: α-amylase; assay: In vitro α-amylase (AA) inhibition assay; conditions: mean ± SD of three replicates
Procedure: Then, 180 µL of Labtest (the amylase substrate) was added and the samples were incubated for 8 min, followed by measuring the first reaction at 620 nm to obtain (X1). Afterwards, the reaction mixture was incubated for an additional 5 min at 37 °C; then, the second reaction was measured to obtain the final reading (X2). […] The results were expressed as IC50 µg/mL (as well as µM) and were determined from the standard curves.

[3] = target: purified recombinant human LDHA protein (Homo sapiens, UniProt P00338); assay: Lactate dehydrogenase A (LDHA) inhibitory assay; assay type: biochemical
Procedure: The LDHA inhibitory effectiveness was investigated by measuring the amounts of consumed NADH [73]. […] The fluorescence of NADH, which has an excitation wavelength of 340 nm and an emission wavelength of 460 nm, was detected using a spectrofluorometer. […] The LDHA inhibitory efficiency was expressed as an inhibition percentage, which was determined via a comparison with the negative control experiments.

[4] = target: T1, COX-2 (Homo sapiens, UniProt P35354); assay: COX-2 inhibitory screening assay (Cayman kit); assay type: biochemical
T1 construct: purchased Cayman Chemical Company 701080
T1 sequence (P35354 18-604): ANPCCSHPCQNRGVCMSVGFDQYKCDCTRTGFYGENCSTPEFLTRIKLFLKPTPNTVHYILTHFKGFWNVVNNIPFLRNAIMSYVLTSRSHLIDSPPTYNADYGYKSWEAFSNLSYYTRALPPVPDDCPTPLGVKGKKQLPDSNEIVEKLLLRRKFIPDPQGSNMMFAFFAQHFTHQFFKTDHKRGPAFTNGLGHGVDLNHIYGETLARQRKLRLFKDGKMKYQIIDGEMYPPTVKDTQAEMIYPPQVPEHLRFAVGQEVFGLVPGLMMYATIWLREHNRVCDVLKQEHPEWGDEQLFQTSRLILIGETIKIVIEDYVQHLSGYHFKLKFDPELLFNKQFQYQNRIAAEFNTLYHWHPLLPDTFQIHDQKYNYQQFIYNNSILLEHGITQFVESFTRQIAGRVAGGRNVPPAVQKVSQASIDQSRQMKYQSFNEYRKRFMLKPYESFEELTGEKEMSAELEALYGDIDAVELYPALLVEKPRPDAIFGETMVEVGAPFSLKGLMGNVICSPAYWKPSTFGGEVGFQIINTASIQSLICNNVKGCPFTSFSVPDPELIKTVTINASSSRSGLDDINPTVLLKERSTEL
Procedure: Each compound of the two series, 3a–h and 5a–h, was resuspended in 100% DMSO at a final concentration of 10 mg/mL. […] Briefly, 10 µL of the tested compound was added to a mixture of the reaction buffer solution (160 µL of 0.1 M Tris-HCl, pH 8.0, in the presence of 2 mM phenol and 5 mM EDTA), COX-2 (10 µL) and heme (10 µL). After a 10 min incubation at 37 °C, the reaction was started by adding arachidonic acid (10 µL), rapidly mixed and kept at 37 °C for 2 min. PGF2α generated via PGH2 reduction with stannous chloride (30 µL) was incubated at room temperature for 5 min. The PGF2α amount was then determined via an enzyme immunoassay. Prior to incubation with the COX-2 reaction (at room temperature 18 h), the 96-well plate was previously coated with a mouse anti-rabbit monoclonal antibody. Unbound reagents were removed by washing the plate followed by adding Ellman’s reagent to the well. The reaction product displaying a distinct yellow color was measured at 410 nm using a UV microplate reader. The % inhibition was calculated by comparing the PGF2α produced in the compound-treated samples with a control sample, using the following equation: % inhibition is equal to [([PGF2α]control − [PGF2α]sample) /[PGF2α ]control ] × 100. […] The COX-2 inhibitory efficiency was expressed as an inhibition percentage, which was determined via a comparison with the negative control experiments.

[5] = tested on: LoVo human colon carcinoma cells; assay: Viability assay (LDH release), LoVo; assay type: cell-based
Procedure: (§1) The anticancer activities of all the synthesized compounds were assessed against two human colon carcinoma cell lines, namely LoVo and HCT-116 (Table 6), via the determination of the mean percents of the viable cancerous cells remaining after being incubated with 200 µg/mL of each test compound for 48 h using LDH assay.
(§2) The samples were diluted in Dulbecco’s Modified Eagle’s Medium, consisting of 10% fetal bovine serum (FBS), added to cells grown and cultured for 24 h in a 5% CO2-humidified incubator at 37 °C. Thereafter, the activity of lactate dehydrogenase released from damaged cells was determined in the collected supernatant aliquots using an ELISA end-point assay (Benchmark Plus, Bio-Rad, CA, USA); 0.1% Triton X-100 in the assay medium and the assay medium only were used as the positive and negative controls, respectively. Cell viability was expressed as a relative percentage of the OD values (at 550 nm) for compound-treated cells (final concentration of 200 µg /mL) and the negative control, which was shown as the mean % ± SD (n = 3). The results of the viability assays for the potential cytotoxic candidates were compared with the % of viable human umbilical vein endothelial cells (HUVEC) at the same concentration. These cells were grown in Dulbecco’s Modified Eagle’s Medium (PAN-Biotech; Barcelona, Spain) containing 10% FBS (Sigma Aldrich; St. Quentin-Fallavier, France), 2 mM Glutamine (Sigma Aldrich), 100 units/mL penicillin and […] streptomycin (Life Technologies; Paisley, UK).

[6] = tested on: HCT-116 human colon carcinoma cells; assay: Viability assay (LDH release), HCT-116; assay type: cell-based
Procedure: as §1, §2

[7] = DPPH radical scavenging assay; assay type: biochemical
Source text: In principle, the antioxidant power of a compound in this assay is correlated to its tendency to reduce the stable, purple-colored DPPH radical through a hydrogen atom transfer (HAT) mechanism and/or a single electron transfer mechanism, thereby converting it to the yellow-colored 2,2-diphenyl-1-picrylhydrazine, whereby this reduction is accompanied by a depletion in the amount of the initial DPPH radicals and a change in the absorbance of the test solution accordingly, which can be detected relative to the blank solution at λ = 517 nm.
The antioxidant potencies of all synthesized compounds were investigated using a 1,1 diphenyl-2-picrylhydrazyl (DPPH) radical scavenging assay according to the protocol described by Bersuder et al.. In brief, a 0.5 mL volume of DPPH ethanolic solution was mixed with an equal volume of each sample concentration (i.e., the test compound or butylated hydroxytoluene, BHT, which was used as the reference antioxidant in the positive control experiment), shaken strongly, and incubated at room temperature for 1 h in darkness. The absorbance of the residual DPPH radicals was measured at λ = 519 nm and compared to the negative control (without the test compound or reference antioxidant). The DPPH radical scavenging power was calculated using the following formula: scavenging efficiency (%) = (1 − Acompound/AControl) × 100, where Acompound and Acontrol are the absorbance of the tested compound and the negative control, respectively. […] Additionally, the ± SD values were calculated from three independent triplicate measurements.

[8] = Viability assay (LDH release), HUVEC; assay type: cell-based, human; conditions: human, human umbilical vein endothelial cells (HUVEC); 200 µg/mL; read-out: Mean % of viable cells ± SD, HUVEC
Procedure: as §2

[9] = tested on: non-tumoral human umbilical vein endothelial cells (HUVEC); assay: Viability assay (LDH release), HUVEC; assay type: cell-based; conditions: Homo sapiens, HUVEC
Procedure: as §2

[10] = % inhibition at 0.200 mg/mL divided by % inhibition at 0.100 mg/mL

| IC50 ([5]; Homo sapiens, LoVo, from concentration–response curves) | IC50 ([6]; Homo sapiens, HCT-116, from concentration–response curves) | Structure (SMILES) | Mean IC50 α-Glucosidase (AG) [1] | IC50 ([1]; read-out: Mean IC50 α-Glucosidase (AG)) | Mean IC50 α-Amylase (AA) [2] | IC50 ([2]; read-out: Mean IC50 α-Amylase (AA)) | Fold change of LDHA inhibition as compared to 0.1 mg/mL [3, 10] | LDHA mean % inhibition ± SD ([3]; at 0.1 mg/mL) | LDHA mean % inhibition ± SD ([3]; at 0.2 mg/mL) | Increase in COX-2 inhibitory efficiency by duplicating the concentration [4, 10] | COX-2 mean % inhibition ± SD ([4]; at 0.100 mg/mL) | COX-2 mean % inhibition ± SD ([4]; at 0.200 mg/mL) | Mean % of viable cells ± SD, LoVo ([5]; 200 µg/mL, 48 h) | Mean % of viable cells ± SD, HCT-116 ([6]; 200 µg/mL, 48 h) | Mean IC50 for scavenging initial DPPH radicals ([7]; mean ± SD of three replicates) | IC50 ([7]; mean ± SD, converted from mg/mL, read-out: Mean IC50 for scavenging initial DPPH radicals (converted)) | Selectivity index (IC50 normal cell / IC50 cell line), LoVo ([5]; HUVEC vs LoVo) | viability at 200 µg/mL [8] | IC50 [9] | Selectivity index (IC50 normal cell / IC50 cell line), HCT-116 ([6]; HUVEC vs HCT-116) |
| --- | --- | --- | --- | --- | --- | --- | --- | --- | --- | --- | --- | --- | --- | --- | --- | --- | --- | --- | --- | --- |
|  |  | O=c1c2cc(Cl)ccc2nc(SCc2ccc(Cl)cc2)n1-c1ccc(C(F)(F)F)cc1 [Compound 5d, 2-(4-Chloro-benzylsulfanyl)-6-chloro-3-(4-trifluoromethyl-phenyl)-3H-quinazolin-4-one] | 38.100 ± 0.656 mg/L | 79.2 µM | 181.667 ± 5.508 mg/L | 377 µM | 1.47 fold | 13.850 ± 2.051% | 20.400 ± 1.980% | 1.68 fold | 26.300 ± 1.839% | 44.050 ± 1.344% | 76.000 ± 1.732% | 86.667 ± 1.528% | 200 ± 28 mg/L | 416 µM |  |  |  |  |
| 2.91 µg/mL and 22.4 µM | 11.8 µg/mL and 91.1 µM | O=c1[nH]cc(F)c(=O)[nH]1 [Compound 5-FU, 5-Fluorouracil, reference compound] |  |  |  |  |  |  |  |  |  |  |  |  |  |  | 102.577 | 57.3 ± 2.52% | 298 µg/mL and 2.29 mM | 25.190 |
